Assay results as given in article PMC9395446, “First-in-human phase 1/1b study to evaluate sitravatinib in patients with advanced solid tumors” (Investigational New Drugs, 2022).
“And” between values parts separate entries of the source, which are not always exact repeats. Identical values can stand only once.

Tested on: advanced solid tumors
Assay: Clinical activity by RECIST v1.1 (ORR, DoR, PFS, OS), phase 1b
Format: in vivo, human
Description: Clinical activity was assessed by objective response rate (ORR) according to Response Evaluation Criteria In Solid Tumors (RECIST) v1.1. Additional endpoints included duration of response (DoR), progression-free survival (PFS) and overall survival (OS) in phase 1b cohorts of patients based on diagnosis and tumor molecular alterations. An exploratory post-hoc analysis of patients with non-squamous NSCLC who experienced disease progression on prior checkpoint inhibitor (CPI) therapy was performed.
Disease status was evaluated according to RECIST v1.1 at baseline and every three cycles in phase 1, and every two cycles (6-week intervals) in phase 1b. Assessments were performed until objective disease progression was documented or until subsequent anti-cancer therapy started (see Supplementary Information [Sect. 1.3] for details).
DoR, PFS and OS were reported descriptively and summarized using the Kaplan–Meier method. DoR was defined as the time from first documentation of objective tumor response (complete response [CR] or partial response [PR]) until first documentation of disease progression per RECIST 1.1 or death (any cause). PFS was defined as the time from first dose of study treatment until progressive disease as defined by RECIST 1.1 or death (any cause). OS was defined as the time from first dose of study treatment until death (any cause).

[1] = NSCLC with molecular alterations (n = 53)
[2] = non-squamous NSCLC with prior CPI experience (n = 24)
[3] = phase 1b Chr4q12 amplification (n=16)
[4] = phase 1b NSCLC KIF5B-RET (n=13)
[5] = phase 1b NSCLC RET rearrangement (n=23)
[6] = phase 1b all molecular alterations (n=113)
[7] = phase 1b mITT overall (n = 161)
[8] = phase 1b overall RET rearrangement (n=31)

## COCCNCc1ccc(-c2cc3nccc(Oc4ccc(NC(=O)C5(C(=O)Nc6ccc(F)cc6)CC5)cc4F)c3s2)nc1 [sitravatinib, Sitravatinib]
NSCLC with a molecular alteration of interest
  ORR: 13.2%
[1]
  CR: 0 n (%)
  DoR 6-month KM estimate (95% CI): 28.6 (4.1, 61.2) %
  DoR median (95% CI): 3.0 (1.8, 10.2) months
  NE (non-evaluable): 8 (15.1) n (%)
  ORR: 7 (13.2) n (%)
  OS 12-month KM estimate (95% CI): 47.6 (32.4, 61.3) %
  OS median (95% CI): 11.6 (6.6, 18.2) months
  PD (progressive disease): 8 (15.1) n (%)
  PFS 6-month KM estimate (95% CI): 32.2 (19.2, 46.0) %
  PFS median (95% CI): 4.3 (2.9, 5.7) months
  PR: 7 (13.2) n (%)
non-squamous NSCLC with prior CPI experience (exploratory)
  ORR: 4.2%
[2]
  CR: 0 n (%)
  DoR 6-month KM estimate (95% CI): 100 (100, 100) %
  DoR median (95% CI): 10.2 (NE, NE) months
  NE (non-evaluable): 6 (25.0) n (%)
  ORR: 1 (4.2) n (%)
  OS 12-month KM estimate (95% CI): 36.8 (16.5, 57.5) %
  OS median (95% CI): 5.2 (2.4, 33.8) months
  PD (progressive disease): 5 (20.8) n (%)
  PFS 6-month KM estimate (95% CI): 24.8 (7.8, 46.6) %
  PFS median (95% CI): 2.9 (1.5, 4.9) months
  PR: 1 (4.2) n (%)
Overall phase 1b mITT population
  ORR: 11.8%
Phase 1b AXL alteration (n=7)
  CR: 0 n (%)
  NE: 0 n (%)
  ORR: 1 (14.3) n (%)
  OS 12-month KM estimate (95% CI): 26.8 (1.3, 67.0) %
  OS median (95% CI): 10.0 (2.2, NE) months
  PD (progressive disease): 2 (28.6) n (%)
  PFS 6-month KM estimate (95% CI): 71.4 (25.8, 92.0) %
  PFS median (95% CI): NR (1.2, NE)
  PR: 1 (14.3) n (%)
Phase 1b CBL alteration (n=31)
  CR: 0 n (%)
  DoR 6-month KM estimate (95% CI): 50.0 (0.6, 91.0) %
  DoR median (95% CI): NR (4.3, NE)
  NE: 9 (29.0) n (%)
  ORR: 2 (6.5) n (%)
  OS 12-month KM estimate (95% CI): 20.2 (7.4, 37.3) %
  OS median (95% CI): 5.0 (3.2, 9.9) months
  PD (progressive disease): 9 (29.0) n (%)
  PFS 6-month KM estimate (95% CI): 12.3 (3.1, 28.3) %
  PFS median (95% CI): 2.0 (1.3, 4.1) months
  PR: 2 (6.5) n (%)
Phase 1b CRPC (n=10)
  CR: 0 n (%)
  NE: 3 (30.0) n (%)
  ORR: 0 n (%)
  OS 12-month KM estimate (95% CI): 18.2 (0.8, 54.5) %
  OS median (95% CI): 10.1 (2.8, 23.2) months
  PD (progressive disease): 1 (10.0) n (%)
  PFS 6-month KM estimate (95% CI): 50.0 (11.1, 80.4) %
  PFS median (95% CI): 5.8 (2.1, NE) months
  PR: 0 n (%)
[3]
  CR: 0 n (%)
  NE: 4 (25.0) n (%)
  ORR: 0 n (%)
  OS 12-month KM estimate (95% CI): 35.2 (13.3, 58.2) %
  OS median (95% CI): 9.5 (3.6, 18.1) months
  PD (progressive disease): 3 (18.8) n (%)
  PFS 6-month KM estimate (95% CI): 23.8 (5.8, 48.5) %
  PFS median (95% CI): 2.7 (1.3, 4.4) months
  PR: 0 n (%)
Phase 1b MET alteration (n=17)
  CR: 0 n (%)
  DoR median (95% CI): NR (3.0, NE)
  NE: 3 (17.6) n (%)
  ORR: 2 (11.8) n (%)
  OS 12-month KM estimate (95% CI): 27.1 (8.4, 50.2) %
  OS median (95% CI): 7.3 (3.5, 13.9) months
  PD (progressive disease): 2 (11.8) n (%)
  PFS 6-month KM estimate (95% CI): 16.4 (2.8, 40.0) %
  PFS median (95% CI): 2.9 (1.9, 4.3) months
  PR: 2 (11.8) n (%)
[4]
  CR: 0 n (%)
  DoR 6-month KM estimate (95% CI): 100.0 (100.0, 100.0) %
  DoR median (95% CI): 10.2 (NE, NE) months
  NE: 3 (23.1) n (%)
  ORR: 1 (7.7) n (%)
  OS 12-month KM estimate (95% CI): 79.5 (39.3, 94.5) %
  OS median (95% CI): 27.2 (10.9, 33.8) months
  PD (progressive disease): 3 (23.1) n (%)
  PFS 6-month KM estimate (95% CI): 36.4 (11.2, 62.7) %
  PFS median (95% CI): 5.7 (1.5, 13.5) months
  PR: 1 (7.7) n (%)
[5]
  CR: 0 n (%)
  DoR 6-month KM estimate (95% CI): 25.0 (0.9, 66.5) %
  DoR median (95% CI): 2.3 (1.8, 10.2) months
  NE: 3 (13.0) n (%)
  ORR: 4 (17.4) n (%)
  OS 12-month KM estimate (95% CI): 73.2 (46.6, 88.1) %
  OS median (95% CI): 27.2 (10.9, NE) months
  PD (progressive disease): 3 (13.0) n (%)
  PFS 6-month KM estimate (95% CI): 40.3 (19.5, 60.4) %
  PFS median (95% CI): 5.7 (3.0, 13.5) months
  PR: 4 (17.4) n (%)
Phase 1b RCC (n=38)
  CR: 0 n (%)
  DoR 6-month KM estimate (95% CI): 100.0 (100.0, 100.0) %
  DoR median (95% CI): 13.2 (6.8, NE) months
  NE: 3 (7.9) n (%)
  ORR: 8 (21.1) n (%)
  OS 12-month KM estimate (95% CI): 60.1 (41.3, 74.6) %
  OS median (95% CI): 29.3 (10.8, 33.4) months
  PD (progressive disease): 4 (10.5) n (%)
  PFS 6-month KM estimate (95% CI): 62.6 (43.5, 76.9) %
  PFS median (95% CI): 9.5 (4.3, 11.7) months
  PR: 8 (21.1) n (%)
[6]
  CR: 0 n (%)
  DoR 6-month KM estimate (95% CI): 53.0 (20.9, 77.3) %
  DoR median (95% CI): 7.0 (1.9, 15.2) months
  ORR: 11 (9.7) n (%)
  OS 12-month KM estimate (95% CI): 36.1 (26.3, 45.9) %
  OS median (95% CI): 9.9 (7.1, 10.9) months
  PD (progressive disease): 23 (20.4) n (%)
  PFS 6-month KM estimate (95% CI): 28.5 (19.6, 38.0) %
  PFS median (95% CI): 3.6 (2.7, 4.4) months
  PR: 11 (9.7) n (%)
[7]
  CR: 0 n (%)
  DoR 6-month KM estimate (95% CI): 71.3% and 71.3 (44.0, 87.0) %
  DoR median (95% CI): 8.2 months and 8.2 (4.3, 16.6) months
  NE (non-evaluable): 26 (16.1) n (%)
  ORR: 19 (11.8) n (%)
  OS 12-month KM estimate (95% CI): 41.3% and 41.3 (32.7, 49.6) %
  OS median (95% CI): 10.7 months and 10.7 (9.9, 11.9) months
  PD (progressive disease): 28 (17.4) n (%)
  PFS 6-month KM estimate (95% CI): 37.5% and 37.5 (29.2, 45.9) %
  PFS median (95% CI): 4.3 months and 4.3 (3.1, 5.6) months
  PR: 19 (11.8) n (%)
[8]
  CR: 0 n (%)
  DoR 6-month KM estimate (95% CI): 40.0 (5.2, 75.3) %
  DoR median (95% CI): 2.8 (1.8, 10.2) months
  NE: 3 (9.7) n (%)
  ORR: 5 (16.1) n (%)
  OS 12-month KM estimate (95% CI): 66.5 (43.3, 82.0) %
  OS median (95% CI): 18.2 (10.9, 33.8) months
  PD (progressive disease): 5 (16.1) n (%)
  PFS 6-month KM estimate (95% CI): 39.5 (21.8, 56.7) %
  PFS median (95% CI): 5.3 (3.0, 6.7) months
  PR: 5 (16.1) n (%)
